From publication PMC9887116, “SDI-118, a novel procognitive SV2A modulator: First-in-human randomized controlled trial including PET/fMRI assessment of target engagement” (Frontiers in Pharmacology, 2023)
Several values for one entry are separate records, joined by “and”; a condition that tells them apart may be missing. Equal values may be shown once.

Experiments:
[1] = anti-convulsant effects (preclinical); format: in vivo; settings: despite good brain penetration and target occupancy
Text: ([Löscher et al., 2016]). […] ([Lynch et al., 2004]; [Matagne et al., 2008]).

[2] = plasma pharmacokinetics, Part A single ascending dose; format: in vivo, human (healthy male subjects)
Method: The study consisted of three parts. […] No stratification was performed.
(§1) Blood samples for PK analysis were taken at regular time-points up to approximately 96 h post-dose in Part A and C. During the study, a protocol amendment was approved to extend the PK sampling scheme to include samples up to approximately 144 h post-dose, starting from the fourth dosing period. The rationale for this amendment was a longer than anticipated terminal elimination half-life of SDI-118 as concluded from preliminary PK data of the first three dosing periods. Plasma concentrations of SDI-118 were assayed using a GLP validated UPLC/MS-MS method. This method is linear for a range of concentrations from 0.200 to 500 ng/ml, with a lower limit of quantification (LLOQ) of 0.200 ng/ml. The following PK parameters were estimated: maximum plasma concentration Cmax, time of maximum plasma concentration Tmax, area under the plasma concentration versus time curve AUC, AUC0-last (up to the last quantifiable concentration Clast), AUCinf (extrapolated to infinity), and apparent terminal elimination half-life t½. Dose proportionality of SDI-118 Cmax, AUC0-last, and AUCinf from Part A was calculated based on a mixed-effect power model. Food effect on SDI-118 Cmax, AUC0-last, and AUCinf from Part C was calculated using a 90% confidence interval (CI) on geometric mean ratios (fed/fasted) based on a mixed-effect analysis of variance (ANOVA) with median difference in Tmax with 90% CI. Major interaction was excluded if the 90% CI on AUC and Cmax ratios (fed/fasted) were within the 50%–200% boundaries. The food effect assessment in Part C was performed on a secondary population, i.e. the PK completers set, which excluded one subject who discontinued the study after one dosing period (cfr. infra).

[3] = food effect on pharmacokinetics, Part C; format: in vivo, human (healthy male subjects); settings: 10 mg
Method: as §1

SV2A = target: T1, SV2A (Homo sapiens, UniProt Q7L0J3); test: brain SV2A occupancy by [11C]-UCB-J PET and PK/PD Emax model, Part B; format: in vivo, human (healthy male subjects)
T1 construct: from tissue; host or cells: brain of healthy male subjects, in vivo
Method: In Part B target occupancy in the brain was measured by PET-scans (GE Signa) with the PET-ligand [^11C]-UCB-J ([Nabulsi et al., 2016]; [Koole et al., 2019]) at three different time points: pre-dose, around Tmax (estimated on data collected in Part A), and approximately 24 h post-dose. [^11C]-UCB-J was administered as an intravenous bolus into the antecubital vein over at least 15 s, followed by saline flush. An arterial line in the radial artery was placed in each subject to collect arterial blood samples to reconstruct a metabolite-corrected arterial plasma input function.
Dynamic PET scans were acquired in 3D list-mode for 90 min. List-mode data were rebinned into […] with a gradually increasing frame duration (6 × 15 s—3 × 30 s—3 × 60 s—2 × 90 s—2 × 3 min—9 × 5 min—3 × 10 min) and corrected for deadtime, randoms, and scatter. To correct for attenuation, a Zero-Echo Time (ZTE) scan was acquired simultaneously with the PET data to generate a subject-specific, MR-based attenuation map. Each frame was reconstructed with an iterative algorithm (OSEM—Ordered Subsets Expectation Maximization, four iterations, 28 subsets), modeling detector response, and using time of flight information (TOF). Each reconstructed frame consisted of 89 slices with a matrix size of 192 × 192, corresponding to an in-plane pixel size of 1.56 mm and a slice separation of 2.78 mm. Finally, smoothing was performed by applying a Gaussian filter (4.5 mm Full Width Half Maximum–FWHM) to each time frame.
SDI-118 SV2A occupancy was estimated globally using a full kinetic one-tissue compartmental modeling approach with an arterial input function (1TCM), and target occupancy was assessed with a Lassen plot using 13 main regions of interest: the overall cortex, the frontal, temporal, parietal and occipital cortex, the insula, the anterior and posterior cingulate cortex, the cerebellum, the striatum, the thalamus, the hippocampus, and the brainstem.
The PK/PD analysis set included all subjects from Part B with at least one available valid combined measurement of PK and PD, who received treatment and experienced no protocol deviations with relevant impact on PK or PD data. The global target occupancy based on the 1TCM method was analyzed as a function of the first PK concentration during the Tmax and 24-h post-dose scans. To estimate the relationship between the observed concentration at the beginning of the PET measurement and the receptor occupancy, a mixed-effect maximal effective concentration (Emax) model with two parameters Emax and half maximal effective concentration (EC50), with a random intercept was used. Parameter estimates, standard errors, and 95% confidence intervals were reported. Predictions from the model were reported with 95% confidence and prediction intervals to inform the required doses to produce these target occupancy values at Tmax and 24-h post-dose.

[4] = Emax model excluding 22-h post-dose data of the 1 mg group

T1 sequence (Q7L0J3 whole entry): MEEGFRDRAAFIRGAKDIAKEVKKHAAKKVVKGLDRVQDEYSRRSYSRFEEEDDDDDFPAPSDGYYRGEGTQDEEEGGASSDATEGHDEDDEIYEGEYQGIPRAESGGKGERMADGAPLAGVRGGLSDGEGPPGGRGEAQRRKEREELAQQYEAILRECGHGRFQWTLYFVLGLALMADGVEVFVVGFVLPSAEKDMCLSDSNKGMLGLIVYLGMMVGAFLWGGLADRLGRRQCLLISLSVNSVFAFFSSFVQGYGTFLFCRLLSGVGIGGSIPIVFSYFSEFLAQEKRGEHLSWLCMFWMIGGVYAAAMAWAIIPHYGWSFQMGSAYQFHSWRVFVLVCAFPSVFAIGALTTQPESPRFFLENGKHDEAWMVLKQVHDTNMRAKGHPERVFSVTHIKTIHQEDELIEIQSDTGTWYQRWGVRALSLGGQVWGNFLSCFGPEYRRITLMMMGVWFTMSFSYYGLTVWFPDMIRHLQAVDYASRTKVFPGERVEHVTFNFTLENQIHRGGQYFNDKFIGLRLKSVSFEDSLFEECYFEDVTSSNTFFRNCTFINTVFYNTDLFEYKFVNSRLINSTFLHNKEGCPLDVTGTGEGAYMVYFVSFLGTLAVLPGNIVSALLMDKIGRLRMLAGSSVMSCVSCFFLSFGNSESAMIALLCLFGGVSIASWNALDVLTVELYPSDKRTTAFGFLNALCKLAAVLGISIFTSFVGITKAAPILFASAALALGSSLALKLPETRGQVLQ

Structure (SMILES): O=C1C[C@H](c2cc(F)c(F)c(F)c2)CN1Cn1ncnc1Cl [SDI-118]
- anti-convulsant effects [1]: without anti-convulsant effects
- geometric mean AUCinf ([2]; 0.3 mg single oral dose): 120 ng·h/mL
- geometric mean Cmax ([2]; 0.3 mg single oral dose): 3.42 ng/mL
- geometric mean AUCinf ([2]; 80 mg single oral dose): 25,500 ng*h/mL
- geometric mean Cmax ([2]; 80 mg single oral dose): 854 ng/mL
- deviation from dose proportionality for Cmax ([2]; 0.3-80 mg, mixed-effect power model): approximately 5%
- dose proportionality based on AUC0-last and AUCinf ([2]; entire dose range 0.3-80 mg): dose-proportional
- median Tmax ([2]; oral capsule, fasting condition): 1.5 h
- median Tmax ([3]; fasting state): 1.5 h
- median Tmax ([3]; fed state (standardized high fat meal)): 4.0 h
- effect of food on extent of exposure (Cmax, AUC0-last, AUCinf) ([3]; fed vs fasted (n = 8)): No clinically relevant effect of food
- mean SV2A occupancy (SV2A; 1 mg oral, approximately 24 h after administration): ~0%
- mean SV2A occupancy (SV2A; 1 mg oral, around Tmax (2 h post-dose), 1TC global method): 23%
- mean SV2A occupancy (SV2A; 2 mg oral, approximately 24 h after administration): 20%
- mean SV2A occupancy (SV2A; 2 mg oral, around Tmax, 1TC global method): 41%
- predicted mean SV2A occupancy at trough level at steady state (SV2A; 10 mg once a day, model prediction): 76%
- mean SV2A occupancy (SV2A; 10 mg oral, approximately 24 h after administration): 48%
- mean SV2A occupancy (SV2A; 10 mg oral, around Tmax, 1TC global method): 69% and ~70%
- mean SV2A occupancy (SV2A; 20 mg oral, approximately 24 h after administration): 61%
- mean SV2A occupancy (SV2A; 20 mg oral, around Tmax, 1TC global method (peak occupancy)): 76%
- mean plasma concentration (SV2A; 20 mg oral, around Tmax, Part B): 159 ± 20.5 ng/mL
- occupancy as share of predicted maximum (SV2A; 80 mg dose, predicted): 96%
- EC50 of SV2A occupancy (plasma concentration) (SV2A; [4]): 0.0282 µg/mL
- Emax of SV2A occupancy (SV2A; [4]): 90.3%
- plasma level predicted to render ~90% of maximal occupancy (SV2A; Figure 3): ~200 ng/mL
- EC50 of plasma concentration-occupancy relationship (Figure 3) (SV2A; Tmax and 24 h post-dose, excluding 24 h data of 1 mg): around 25 ng/ml
- EC90 of SV2A occupancy (concentration where 90% of the maximum effect is reached) (SV2A; mixed-effect Emax model): 0.245 µg/mL
- EC50 of SV2A occupancy (plasma concentration) (SV2A; mixed-effect Emax model, all data, 95% CI 18.4 to 36.3 ng/ml): 0.0273 µg/mL
- Emax of SV2A occupancy (SV2A; mixed-effect Emax model, all data, 95% CI 80.1%-98.4%): 89.2%
- occupancy levels at which mild and transient side effects were seen in some individuals (SV2A; possible target related effect): > 60%
